In brackets after ≈: the same amount, converted by molar mass. One block for each compound: values may come before it.
Assays:
[1] = Compound solubility in water
[2] = biological target: T1, glucocerebrosidase (Gcase) (Homo sapiens, UniProt P04062); assay: Glucocerebrosidase (Gcase) activation assay, 4-methylumbelliferyl-beta-D-glucopyranoside substrate, with saposin C; type: biochemical; conditions: 10 nM GCase, 100 nM saposin C, pH 4.7; for activation at 0.1 µM: read-out: Percent Gcase Activation, 0.1 μM Test Compound; for activation at 1 µM: read-out: Percent Gcase Activation, 1 μM Test Compound
T1 sequence (P04062 40-536): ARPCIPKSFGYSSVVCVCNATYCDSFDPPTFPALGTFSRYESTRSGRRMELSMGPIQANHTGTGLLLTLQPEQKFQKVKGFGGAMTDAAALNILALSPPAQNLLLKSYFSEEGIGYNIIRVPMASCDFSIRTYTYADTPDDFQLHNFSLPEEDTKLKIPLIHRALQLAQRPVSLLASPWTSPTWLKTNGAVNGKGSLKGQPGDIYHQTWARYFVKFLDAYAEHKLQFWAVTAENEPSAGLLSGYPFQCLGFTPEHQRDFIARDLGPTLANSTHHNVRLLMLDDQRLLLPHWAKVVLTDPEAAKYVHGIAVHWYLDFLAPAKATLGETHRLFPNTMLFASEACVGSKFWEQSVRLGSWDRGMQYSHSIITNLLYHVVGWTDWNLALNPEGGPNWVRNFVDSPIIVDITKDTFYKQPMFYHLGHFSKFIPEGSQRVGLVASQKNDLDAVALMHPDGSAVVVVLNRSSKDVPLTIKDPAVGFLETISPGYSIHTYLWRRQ
Protocol: A 484 μL aliquot of a 1.0 mg/mL solution of phosphatidylserine (PS) (Sigma P7769) in chloroform was evaporated under a stream of nitrogen for 1 hour. The lipid film was dissolved over 4 minutes of vigorous vortexing in 40 mL of 176 mM K2HPO4/50 mM citric acid (pH 4.7) containing 7.5 μL of triton X-100, resulting in a mixed micellar preparation with a composition of 0.32 mM triton and 0.37 mol % PS. 4-Methylumbelliferyl-beta-D-glucopyranoside (ACROS-337025000) was dissolved in the micellar solution to a final concentration of 2 mM for use as the reaction substrate.
Test compounds were diluted to the desired concentrations with dimethylsulfoxide (DMSO) from 10 mM stocks, and 0.41 μL of the DMSO compound mixture was added to 100 μL of micellar solution containing 10 nM GCase and 100 nM saposin C (Enzo ALX-201-262-C050). Pre-incubation was allowed to occur for 30 minutes at room temperature, after which the reaction was initiated by combining 25 μL of substrate solution with 25 μL of compound/GCase/saposin mixture. The reaction proceeded for 15 minutes at room temperature and was stopped by adding 150 μL of 1M glycine, pH 12.5. The endpoint of the reaction was monitored by measuring fluorescence intensity (excitation: 365 nm; emission: 440 nm) on a SpectraMax i3 instrument (Molecular Devices). […]

Compound: CCC(NC(=O)c1cccc2oc(C)nc12)c1ccccc1 (stereo not drawn) [2-Methyl-N-(1-phenylpropyl)benzo[d]oxazole-4-carboxamide]
- solubility [1]: 13.2 µg/mL (≈ 44.7 µM)
- activation at 0.1 µM ([2]; 0.1 μM test compound): < 5%
- activation at 1 µM ([2]; 1 μM test compound): 5 to 20%

Compound: CCCCCO[C@H]1CC[C@H](NC(=O)c2nccn3cc(C)nc23)CC1 [2-Methyl-N—((R 4R)-4-(pentyloxy)cyclohexyl)imidazo[1,2-a]pyrazine-8-carboxamide]
- solubility [1]: 8.4 µg/mL (≈ 24.4 µM)
- activation at 0.1 µM ([2]; 0.1 μM test compound): < 5%
- activation at 1 µM ([2]; 1 μM test compound): < 5%

Compound: CCC(NC(=O)c1ccc(C)n2ccnc12)c1ccccc1 (stereo not drawn) [5-Methyl-N-(1-phenylpropyl)imidazo[1,2-a]pyridine-8-carboxamide]
- solubility [1]: 6.2 µg/mL (≈ 21.1 µM)
- activation at 0.1 µM ([2]; 0.1 μM test compound): 5 to 20%
- activation at 1 µM ([2]; 1 μM test compound): > 20%

Compound: CCCCCO[C@H]1CC[C@H](NC(=O)c2ccc(C)n3ccnc23)CC1 [5-Methyl-N-((1S,4S)-4-(pentyloxy)cyclohexyl) imidazo[1,2-a]pyridine-8-carboxamide]
- solubility [1]: 14.2 µg/mL (≈ 41.3 µM)
- activation at 0.1 µM ([2]; 0.1 μM test compound): 5 to 20%
- activation at 1 µM ([2]; 1 μM test compound): > 20%

Compound: Cc1nc2c(C(=O)Nc3ccc4c(c3)CCC4)cccc2o1 [N-(2,3-Dihydro-1H-inden-5-yl)-2-methylbenzo[d]oxazole-4-carboxamide]
- solubility [1]: 0.3 µg/mL (≈ 1.03 µM)
- activation at 0.1 µM ([2]; 0.1 μM test compound): < 5%
- activation at 1 µM ([2]; 1 μM test compound): 5 to 20%

Compound: C#Cc1ccc(NC(=O)c2nccn3cc(C)nc23)cc1 [N-(4-Ethynlphenyl)-2-methylimidazo[1,2-a]pyrazine-8-carboxamide]
- solubility [1]: 0.8 µg/mL (≈ 2.9 µM)
- activation at 0.1 µM ([2]; 0.1 μM test compound): < 5%
- activation at 1 µM ([2]; 1 μM test compound): 5 to 20%

Compound: N-(4-Ethynylphenyl)-5-methylimidazo[1,2-a]pyrazine-8-carboxamide
- Percent Gcase Activation, 0.1 μM Test Compound ([2]; 0.1 μM test compound): ++ (Gcase activation in the range of 5% up to 20%)
- Percent Gcase Activation, 1 μM Test Compound ([2]; 1 μM test compound): +++ (Gcase activation greater than 20%)

Further lines, results first:

- solubility [1]: 1.5 µg/mL (≈ 4.9 µM)
- activation at 0.1 µM ([2]; 0.1 μM test compound): < 5%
- activation at 1 µM ([2]; 1 μM test compound): > 20%
Compound: Cc1nc2c(C(=O)NC3CCCc4ccccc43)cccc2o1 (stereo not drawn) [2-Methyl-N-(1,2,3,4-tetrahydronaphthalen-1-yl)benzo[d]oxazole-4-carboxamide]

- solubility [1]: 7.7 µg/mL (≈ 25.1 µM)
- activation at 0.1 µM ([2]; 0.1 μM test compound): < 5%
- activation at 1 µM ([2]; 1 μM test compound): < 5%
Compound: Cc1cn2ccnc(C(=O)NC3CCCc4ccccc43)c2n1 (stereo not drawn) [2-Methyl-N-(1,2,3,4-tetrahydronaphthalen-1-yl)imidazo[1,2-a]pyrazine-8-carboxamide]

- solubility [1]: 10.9 µg/mL (≈ 37.1 µM)
- activation at 0.1 µM ([2]; 0.1 μM test compound): < 5%
- activation at 1 µM ([2]; 1 μM test compound): < 5%
Compound: CCC(NC(=O)c1nccn2cc(C)nc12)c1ccccc1 (stereo not drawn) [2-Methyl-N-(1-phenylpropyl)imidazo[1,2-a]pyrazine-8-carboxamide]

- solubility [1]: 1.6 µg/mL (≈ 4.65 µM)
- activation at 0.1 µM ([2]; 0.1 μM test compound): < 5%
- activation at 1 µM ([2]; 1 μM test compound): < 5%
Compound: CCCCCO[C@H]1CC[C@H](NC(=O)c2cccc3oc(C)nc23)CC1 [2-Methyl-N-((1R,4R)-4-(pentyloxy)cyclohexyl)benzo[d]oxazole-4-carboxamide]

- solubility [1]: 0.2 µg/mL (≈ 0.655 µM)
- activation at 0.1 µM ([2]; 0.1 μM test compound): 5 to 20%
- activation at 1 µM ([2]; 1 μM test compound): > 20%
Compound: Cc1ccc(C(=O)NC2CCCc3ccccc32)c2nccn12 (stereo not drawn) [5-Methyl-N-(1,2,3,4-tetrahydronaphthalen-1-yl)imidazo[1,2-a]pyridine-8-carboxamide]

- activation at 0.1 µM ([2]; 0.1 μM test compound): < 5%
- activation at 1 µM ([2]; 1 μM test compound): 5 to 20%
Compound: Cc1ccc(C(=O)N[C@@H](C)C2CC2)c2nccn12 [(S)—N-(1-Cyclopropylethyl)-5-methylimidazo[1,2-a]pyridine-8-carboxamide]

- solubility [1]: 9.9 µg/mL (≈ 33.3 µM)
- activation at 0.1 µM ([2]; 0.1 μM test compound): 5 to 20%
- activation at 1 µM ([2]; 1 μM test compound): > 20%
Compound: Cc1ccc(C(=O)NC(C2CC2)C(F)(F)F)c2nccn12 (stereo not drawn) [N-(1-Cyclopropyl-2,2,2-trifluoroethyl)-5-methylimidazo[1,2-a]pyridine-8-carboxamide]

- solubility [1]: 1 µg/mL (≈ 3.42 µM)
- activation at 0.1 µM ([2]; 0.1 μM test compound): < 5%
- activation at 1 µM ([2]; 1 μM test compound): 5 to 20%
Compound: Cc1cn2ccnc(C(=O)Nc3ccc4c(c3)CCC4)c2n1 [N-(2,3-Dihydro-1H-inden-5-yl)-2-methylimidazo[1,2-al]pyrazine-8-carboxamide]

- solubility [1]: 0.4 µg/mL (≈ 1.37 µM)
- activation at 0.1 µM ([2]; 0.1 μM test compound): < 5%
- activation at 1 µM ([2]; 1 μM test compound): > 20%
Compound: Cc1ccc(C(=O)Nc2ccc3c(c2)CCC3)c2nccn12 [N-(2,3-Dihydro-1H-inden-5-yl)-5-methylimidazo[1,2-a]pyridine-8-carboxamide]

- activation at 0.1 µM ([2]; 0.1 μM test compound): < 5%
- activation at 1 µM ([2]; 1 μM test compound): > 20%
Compound: Cc1ccc(C(=O)NC(C)(C)C2CC2)c2nccn12 [N-(2-Cyclopropylpropan-2-yl)-5-methylimidazo[1,2-a]pyridine-8-carboxamide]

— patent publication US11345698B2, “Substituted imidazo[1,2-a]pyridines, substituted imidazo[1,2-a]pyrazines, related compounds, and their use in the treatment of medical disorders” (Bial—R&D Investments, S.A., priority 2016, dated 2022)
